Experimental data from patent US20240190824A1, “INHIBITORS OF TREK (TWIK RELATED K+ CHANNELS) CHANNEL FUNCTION” (ONO PHARMACEUTICAL CO., LTD., priority 2019, published 2024).

Target: human TREK-1 (Homo sapiens (Human), UniProt O95069)
Assay: TREK-1 Thallium (Tl+) flux assay
Format: cell-based
Conditions: CHO-K1 cells stably expressing human TREK-1

Sequence of human TREK-1 (O95069 whole entry): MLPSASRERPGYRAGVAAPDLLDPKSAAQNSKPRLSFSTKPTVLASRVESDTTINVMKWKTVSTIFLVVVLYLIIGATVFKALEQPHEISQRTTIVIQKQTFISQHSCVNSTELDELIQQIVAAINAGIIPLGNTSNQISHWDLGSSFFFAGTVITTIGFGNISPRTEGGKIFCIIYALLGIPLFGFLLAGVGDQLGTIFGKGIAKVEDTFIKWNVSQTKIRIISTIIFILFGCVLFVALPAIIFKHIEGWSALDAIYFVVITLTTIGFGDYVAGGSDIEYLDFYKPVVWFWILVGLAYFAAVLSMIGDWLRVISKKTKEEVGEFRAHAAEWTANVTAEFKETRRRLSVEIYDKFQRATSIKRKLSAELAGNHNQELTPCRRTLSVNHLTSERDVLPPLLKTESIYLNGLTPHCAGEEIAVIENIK

`Cc1cc(C#Cc2ccccc2)cnc1NC(=O)c1cc(-c2cnn(C)c2)ccc1Cl` [Compound 78, 2-chloro-N-[3-methyl-5-(2-phenylethynyl)-2-pyridyl]-5-(1-methylpyrazol-4-yl)benzamide] and `Cc1cc(C#Cc2ccccc2)cnc1NC(=O)c1cc(OCCN2CCOCC2)ccc1Cl` [Compound 84, 2-chloro-N-[3-methyl-5-(2-phenylethynyl)-2-pyridyl]-5-(2-morpholinoethoxy)benzamide] are within 1.5-fold of each other in IC50: 470 nM for the first, 420 nM for the second.

First: Cc1cc(C#Cc2ccccc2)cnc1NC(=O)c1cc(C(=O)N2CC(O)(C(F)(F)F)C2)ccc1Cl [Compound 79, 2-chloro-5-[3-hydroxy-3-(trifluoromethyl)azetidine-1-carbonyl]-N-[3-methyl-5-(2-phenylethynyl)-2-pyridyl]benzamide]
Second: O=C(Nc1ncc(C#Cc2ccccc2)cc1F)c1cc(OC[C@H]2COCCO2)ccc1Cl [Compound 80, 2-chloro-5-[[(2R)-1,4-dioxan-2-yl]methoxy]-N-[3-fluoro-5-(2-phenylethynyl)-2-pyridyl]benzamide]
The IC50 of the first is 14-fold higher: 870 nM for the first, 60 nM for the second.

`Cc1cc(C#Cc2ccccc2)cnc1N1Cc2ccc(OCC3COCCO3)cc2C1=O` (stereo not drawn) [Compound 81, 6-(1,4-dioxan-2-ylmethoxy)-2-[3-methyl-5-(2-phenylethynyl)-2-pyridyl]isoindolin-1-one] and `Cc1cc(C#Cc2ccccc2)cnc1N1Cc2ccc(OCC3CCOCC3)cc2C1=O` [Compound 82, 2-(3-methyl-5-(phenylethynyl)pyridin-2-yl)-6-((tetrahydro-2H-pyran-4-yl)methoxy)isoindolin-1-one] are within 1.5-fold of each other in IC50: 360 nM for the first, 390 nM for the second.

First: Cc1cc(OCc2ccccc2)cnc1NC(=O)c1cc(NC(=O)OC(C)(C)C)ccc1Cl [Compound 87, tert-butyl N-[3-[(5-benzyloxy-3-methyl-2-pyridyl)carbamoyl]-4-chloro-phenyl]carbamate]
Second: Cc1cc(OCc2ccccc2)cc(C)c1NC(=O)c1cc(NC(=O)OC(C)(C)C)ccc1Cl [Compound 88, tert-butyl (3-((4-(benzyloxy)-2,6-dimethylphenyl)carbamoyl)-4-chlorophenyl)carbamate]
The IC50 of the first is 1.6-fold higher: 560 nM for the first, 360 nM for the second. The second is the more potent here.

Going from `Cc1cc(OCc2ccccc2)ccc1NC(=O)c1ccc(N)cc1Cl` [Compound 89, 4-amino-N-(4-(benzyloxy)-2-methylphenyl)-2-chlorobenzamide] to `CC(=O)Nc1ccc(Cl)c(C(=O)Nc2ccc(OCc3ccccc3)cc2C)c1` [Compound 91], the IC50 falls from 7670 nM to 1030 nM (7.4-fold). The second is the more potent here.

Going from `CC(C)(C)OC(=O)Nc1ccc(Cl)c(C(=O)Nc2ncc(-c3cnn(-c4ccc(F)cc4)c3)cc2F)c1` [Compound 92, tert-butyl (4-chloro-3-((3-fluoro-5-(1-(4-fluorophenyl)-1H-pyrazol-4 yl)pyridin-2-yl)carbamoyl)phenyl)carbamate] to `Cc1cc(-c2cnn(-c3ccc(F)cc3)c2)cnc1NC(=O)c1cc(NC(=O)OC(C)(C)C)ccc1Cl` [Compound 94, tert-butyl N-[4-chloro-3-[[5-[1-(4-fluorophenyl)pyrazol-4-yl]-3-methyl-2-pyridyl]carbamoyl]phenyl]carbamate], the IC50 rises from 130 nM to 200 nM (1.5-fold).

`Cc1cc(-c2cnn(-c3ccccc3)c2)cnc1NC(=O)c1cc(NC(=O)OC(C)(C)C)ccc1Cl` [Compound 93, tert-butyl N-[4-chloro-3-[[3-methyl-5-(1-phenylpyrazol-4-yl)-2-pyridyl]carbamoyl]phenyl]carbamate] and `CC(C)(C)OC(=O)Nc1ccc(Cl)c(C(=O)Nc2ncc(-c3cc(-c4ccccc4)no3)cc2F)c1` [Compound 96, tert-butyl N-[4-chloro-3-[[3-fluoro-5-(3-phenylisoxazol-5-yl)-2-pyridyl]carbamoyl]phenyl]carbamate] are within 1.5-fold of each other in IC50: 190 nM for the first, 230 nM for the second.

With `Cc1cc(-c2noc(-c3ccc(F)cc3)n2)cnc1NC(=O)c1cc(NC(=O)OC(C)(C)C)ccc1Cl` [Compound 95, tert-butyl N-[4-chloro-3-[[5-[5-(4-fluorophenyl)-1,2,4-oxadiazol-3-yl]-3-methyl-2-pyridyl]carbamoyl]phenyl]carbamate] the IC50 was 230 nM.
